The supplement of paper PMC10627819

Assays:
Test in all cases: Bliss interaction score (quartile over a dose matrix) (fitness difference); higher = more antagonism (negative = synergy)
S. pneumoniae D39V = system: S. pneumoniae D39V
Method in brief: (§1)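 At entry into stationary phase, OD595 was recorded and divided by the robust mean of the no-drug wells on that plate, with any value above 1 set to 1. This gives the fitness measure used throughout. Single-drug fitness was inferred from combination data, and the Bliss score, observed minus product-expected fitness, is shown as quartiles across technical, biological and donor/recipient replicates.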

B. subtilis 168 = system: B. subtilis 168
Method in brief: as §1

S. aureus DSM 20231 = system: S. aureus DSM 20231
Method in brief: as §1

S. aureus Newman = system: S. aureus Newman
Method in brief: as §1
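Note: first quartile when negative (synergy) and third quartile when positive (antagonism).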

**Q.** `CC(=O)OC[C@H]1O[C@@H]([S-])[C@H](OC(C)=O)[C@@H](OC(C)=O)[C@@H]1OC(C)=O.CCP(CC)CC.[Au+]` [Auranofin] + CN(N=O)C(=O)N[C@@H](C=O)[C@@H](O)[C@H](O)[C@H](O)CO [Streptozotocin] was tested. Which Bliss interaction score (S. pneumoniae D39V) did it give?
**A.** Its Bliss interaction score is 0.105.

**Q.** What about the Bliss interaction score (B. subtilis 168) of the same compound?
**A.** Its Bliss interaction score is 0.0355.

**Q.** What about the Bliss interaction score (S. aureus DSM 20231) of the same compound?
**A.** Its Bliss interaction score is -0.0317.

**Q.** What about the Bliss interaction score (S. aureus Newman) of the same compound?
**A.** The Bliss interaction score was 0.0723.

**Q.** `CC(=O)OC[C@H]1O[C@@H]([S-])[C@H](OC(C)=O)[C@@H](OC(C)=O)[C@@H]1OC(C)=O.CCP(CC)CC.[Au+]` [Auranofin] + COc1cc(Cc2cnc(N)nc2N)cc(OC)c1OC [Trimethoprim] was tested. Which Bliss interaction score (S. pneumoniae D39V) did it give?
**A.** Its Bliss interaction score is -0.0729.

**Q.** What about the Bliss interaction score (B. subtilis 168) of the same compound?
**A.** Its Bliss interaction score is -0.0454.

**Q.** What about the Bliss interaction score (S. aureus DSM 20231) of the same compound?
**A.** Its Bliss interaction score is 0.0284.

**Q.** What about the Bliss interaction score (S. aureus Newman) of the same compound?
**A.** Its Bliss interaction score is -0.0844.

**Q.** For `CC(=O)OC[C@H]1O[C@@H]([S-])[C@H](OC(C)=O)[C@@H](OC(C)=O)[C@@H]1OC(C)=O.CCP(CC)CC.[Au+]` [Auranofin] + Cc1ncc([N+](=O)[O-])n1CCO [Metronidazole], which Bliss interaction score (S. pneumoniae D39V) is on record?
**A.** Its Bliss interaction score is 0.133.

**Q.** And the Bliss interaction score (B. subtilis 168)?
**A.** The Bliss interaction score was -0.0357.

**Q.** What about the Bliss interaction score (S. aureus DSM 20231) of the same compound?
**A.** Its Bliss interaction score is -0.046.

**Q.** And the Bliss interaction score (S. aureus Newman)?
**A.** The Bliss interaction score was -0.137.

**Q.** What does the source list for `CC(=O)OC[C@H]1O[C@@H]([S-])[C@H](OC(C)=O)[C@@H](OC(C)=O)[C@@H]1OC(C)=O.CCP(CC)CC.[Au+]` [Auranofin] + CO/N=C(\C(=O)N[C@@H]1C(=O)N2C(C(=O)[O-])=C(C[N+]3(C)CCCC3)CS[C@H]12)c1csc(N)n1 [Cefepime]?
**A.** Bliss interaction score (S. pneumoniae D39V): 0.114; Bliss interaction score (B. subtilis 168): 0.046; Bliss interaction score (S. aureus DSM 20231): 0.0512; Bliss interaction score (S. aureus Newman): 0.0786

**Q.** How did the Bliss interaction score (S. pneumoniae D39V) turn out when `O=C(O[C@@H]1Cc2c(O)cc(O)cc2O[C@@H]1c1cc(O)c(O)c(O)c1)c1cc(O)c(O)c(O)c1` [EGCG] + Oc1cc(Cl)ccc1Oc1ccc(Cl)cc1Cl [Triclosan] was run?
**A.** Its Bliss interaction score is -0.0791.

**Q.** And the Bliss interaction score (B. subtilis 168)?
**A.** Its Bliss interaction score is -0.0336.

**Q.** What about the Bliss interaction score (S. aureus DSM 20231) of the same compound?
**A.** Its Bliss interaction score is 0.0962.

**Q.** What about the Bliss interaction score (S. aureus Newman) of the same compound?
**A.** The Bliss interaction score was 0.0222.

**Q.** Which Bliss interaction score (S. pneumoniae D39V) does the source give for `N[C@@H]1CONC1=O` [CycloserineD] + C[n+]1ccc(-c2cc[n+](C)cc2)cc1 [Paraquat] here?
**A.** The Bliss interaction score was -0.101.

**Q.** What about the Bliss interaction score (B. subtilis 168) of the same compound?
**A.** The Bliss interaction score was -0.036.

**Q.** What about the Bliss interaction score (S. aureus DSM 20231) of the same compound?
**A.** Its Bliss interaction score is 0.0783.

**Q.** What about the Bliss interaction score (S. aureus Newman) of the same compound?
**A.** Its Bliss interaction score is 0.0488.

**Q.** For `C[C@@H](O)[C@H]1C(=O)N2C(C(=O)O)=C(SCCNC=N)C[C@H]12` [Imipenem] + CN[C@H](CC(C)C)C(=O)N[C@H]1C(=O)N[C@@H](CC(N)=O)C(=O)N[C@H]2C(=O)N[C@H]3C(=O)N[C@H](C(=O)N[C@H](C(=O)O)c4cc(O)cc(O)c4-c4cc3ccc4O)[C@H](O[C@H]3C[C@](C)(N)[C@@H](O)[C@H](C)O3)c3ccc(c(Cl)c3)Oc3cc2cc(c3O[C@@H]2O[C@H](CO)[C@@H](O)[C@H](O)[C@H]2O[C@H]2C[C@](C)(NCc3ccc(-c4ccc(Cl)cc4)cc3)[C@@H](O)[C@H](C)O2)Oc2ccc(cc2Cl)[C@H]1O [Oritavancin], which Bliss interaction score (S. pneumoniae D39V) is on record?
**A.** Its Bliss interaction score is -0.0529.

**Q.** What about the Bliss interaction score (B. subtilis 168) of the same compound?
**A.** Its Bliss interaction score is 0.0293.

**Q.** And the Bliss interaction score (S. aureus DSM 20231)?
**A.** Its Bliss interaction score is -0.0256.

**Q.** And the Bliss interaction score (S. aureus Newman)?
**A.** The Bliss interaction score was 0.0479.

**Q.** `CC[C@H]1OC(=O)[C@H](C)[C@@H](O[C@H]2C[C@@](C)(OC)[C@@H](O)[C@H](C)O2)[C@H](C)[C@@H](O[C@@H]2O[C@H](C)C[C@H](N(C)C)[C@H]2O)[C@](C)(OC)C[C@@H](C)C(=O)[C@H](C)[C@@H](O)[C@]1(C)O` [Clarithromycin] + CC(=O)O[C@H]1C[C@@]2(C)[C@@H](C[C@@H](O)[C@H]3[C@@]4(C)CC[C@@H](O)[C@@H](C)[C@@H]4CC[C@@]32C)/C1=C(\CCC=C(C)C)C(=O)O [Fusidic acid] was tested. Which Bliss interaction score (S. pneumoniae D39V) did it give?
**A.** The Bliss interaction score was -0.0728.

**Q.** What about the Bliss interaction score (B. subtilis 168) of the same compound?
**A.** The Bliss interaction score was -0.059.

**Q.** What about the Bliss interaction score (S. aureus DSM 20231) of the same compound?
**A.** Its Bliss interaction score is 0.0257.

**Q.** And the Bliss interaction score (S. aureus Newman)?
**A.** The Bliss interaction score was 0.0229.

**Q.** `N[C@@H]1CONC1=O` [CycloserineD] + Cn1nnc(-c2ccc(-c3ccc(N4C[C@H](CO)OC4=O)cc3F)cn2)n1 [Tedizolid] was tested. Which Bliss interaction score (S. pneumoniae D39V) did it give?
**A.** Its Bliss interaction score is 0.126.

**Q.** What about the Bliss interaction score (B. subtilis 168) of the same compound?
**A.** Its Bliss interaction score is 0.0364.

**Q.** What about the Bliss interaction score (S. aureus DSM 20231) of the same compound?
**A.** Its Bliss interaction score is -0.101.

**Q.** What about the Bliss interaction score (S. aureus Newman) of the same compound?
**A.** The Bliss interaction score was 0.0593.

**Q.** Which Bliss interaction score (S. pneumoniae D39V; main component drawn) does the source give for `N[C@@H]1CONC1=O` [CycloserineD] + CCC(C)C1C(=O)NC(=C)C(=O)NC(C(=O)NC(CSCC(C(=O)N1)NC(=O)/C(=C/C)/NC(=O)C(C(C)CC)N)C(=O)NC2C(SCC(NC(=O)CNC(=O)C3CCCN3C2=O)C(=O)NC(CCCCN)C(=O)NC4C(SCC(NC(=O)CNC(=O)C(NC(=O)C(NC(=O)C(NC(=O)CNC4=O)C)CC(C)C)CCSC)C(=O)NC(CC(=O)N)C(=O)NC(CCSC)C(=O)NC(CCCCN)C(=O)NC5C(SCC6C(=O)NC(C(=O)NC(CSC(C(C(=O)N6)NC(=O)C(NC5=O)C)C)C(=O)NC(CO)C(=O)NC(C(C)CC)C(=O)NC(CC7=CN=CN7)C(=O)NC(C(C)C)C(=O)NC(=C)C(=O)NC(CCCCN)C(=O)O)CC8=CN=CN8)C)C)C)CC(C)C [Nisin] here?
**A.** Its Bliss interaction score is 0.0554.

**Q.** And the Bliss interaction score (B. subtilis 168; main component drawn)?
**A.** Its Bliss interaction score is 0.0525.

**Q.** And the Bliss interaction score (S. aureus DSM 20231; main component drawn)?
**A.** The Bliss interaction score was 0.193.

**Q.** And the Bliss interaction score (S. aureus Newman; main component drawn)?
**A.** The Bliss interaction score was 0.0401.

**Q.** For `CC(=O)O[C@H]1C[C@@]2(C)[C@@H](C[C@@H](O)[C@H]3[C@@]4(C)CC[C@@H](O)[C@@H](C)[C@@H]4CC[C@@]32C)/C1=C(\CCC=C(C)C)C(=O)O` [Fusidic acid] + CC[C@H]1OC(=O)[C@H](C)C(=O)[C@H](C)[C@@H](O[C@@H]2O[C@H](C)C[C@H](N(C)C)[C@H]2O)[C@](C)(OC)C[C@@H](C)C(=O)[C@H](C)[C@H]2N(CCCCn3cnc(-c4cccnc4)c3)C(=O)O[C@]12C [Telithromycin], which Bliss interaction score (S. pneumoniae D39V) is on record?
**A.** The Bliss interaction score was -0.0347.

**Q.** And the Bliss interaction score (B. subtilis 168)?
**A.** Its Bliss interaction score is -0.0755.

**Q.** And the Bliss interaction score (S. aureus DSM 20231)?
**A.** Its Bliss interaction score is -0.0334.

**Q.** What about the Bliss interaction score (S. aureus Newman) of the same compound?
**A.** The Bliss interaction score was 0.0161.

**Q.** How did the Bliss interaction score (S. pneumoniae D39V) turn out when `CC[C@H]1OC(=O)[C@H](C)[C@@H](O[C@H]2C[C@@](C)(OC)[C@@H](O)[C@H](C)O2)[C@H](C)[C@@H](O[C@@H]2O[C@H](C)C[C@H](N(C)C)[C@H]2O)[C@](C)(OC)C[C@@H](C)C(=O)[C@H](C)[C@@H](O)[C@]1(C)O` [Clarithromycin] + N[C@@H]1CONC1=O [CycloserineD] was run?
**A.** The Bliss interaction score was 0.136.

**Q.** And the Bliss interaction score (B. subtilis 168)?
**A.** The Bliss interaction score was 0.077.

**Q.** And the Bliss interaction score (S. aureus DSM 20231)?
**A.** The Bliss interaction score was -0.127.

**Q.** What about the Bliss interaction score (S. aureus Newman) of the same compound?
**A.** Its Bliss interaction score is -0.0691.

**Q.** With `CC(=O)OC[C@H]1O[C@@H]([S-])[C@H](OC(C)=O)[C@@H](OC(C)=O)[C@@H]1OC(C)=O.CCP(CC)CC.[Au+]` [Auranofin] + CCC[C@@H]1C[C@@H](C(=O)N[C@@H]([C@H]2O[C@H](SC)[C@H](O)[C@@H](O)[C@H]2O)[C@H](C)Cl)N(C)C1 [Clindamycin] as the compound, how does the Bliss interaction score (S. pneumoniae D39V) read?
**A.** The Bliss interaction score was 0.0341.

**Q.** What about the Bliss interaction score (B. subtilis 168) of the same compound?
**A.** The Bliss interaction score was 0.0424.

**Q.** And the Bliss interaction score (S. aureus DSM 20231)?
**A.** The Bliss interaction score was 0.0307.

**Q.** And the Bliss interaction score (S. aureus Newman)?
**A.** Its Bliss interaction score is 0.0741.

**Q.** With `N[C@@H]1CONC1=O` [CycloserineD] + CN[C@@H]1[C@H](O[C@H]2[C@H](O[C@H]3[C@H](O)[C@@H](O)[C@H](N=C(N)N)[C@@H](O)[C@@H]3N=C(N)N)O[C@@H](C)[C@]2(O)C=O)O[C@@H](CO)[C@H](O)[C@H]1O [Streptomycin] as the compound, how does the Bliss interaction score (S. pneumoniae D39V) read?
**A.** The Bliss interaction score was -0.108.

**Q.** What about the Bliss interaction score (B. subtilis 168) of the same compound?
**A.** Its Bliss interaction score is -0.0511.

**Q.** What about the Bliss interaction score (S. aureus DSM 20231) of the same compound?
**A.** The Bliss interaction score was -0.136.

**Q.** And the Bliss interaction score (S. aureus Newman)?
**A.** The Bliss interaction score was 0.0653.

**Q.** For `N[C@@H]1CONC1=O` [CycloserineD] + COc1cccc2c1C(=O)c1c(O)c3c(c(O)c1C2=O)C[C@@](O)(C(=O)CO)C[C@@H]3O[C@H]1C[C@H](N)[C@H](O)[C@H](C)O1 [Doxorubicin], which Bliss interaction score (S. pneumoniae D39V) is on record?
**A.** The Bliss interaction score was 0.0698.

**Q.** And the Bliss interaction score (B. subtilis 168)?
**A.** The Bliss interaction score was 0.0778.

**Q.** What about the Bliss interaction score (S. aureus DSM 20231) of the same compound?
**A.** The Bliss interaction score was 0.0418.

**Q.** What about the Bliss interaction score (S. aureus Newman) of the same compound?
**A.** Its Bliss interaction score is -0.0446.
